Here are results for 1 compound from patent publication US20100062478A1, “DRUG FOR ANALYSIS OF WATER TRANSPORT FUNCTION OF MEMBRANE PROTEIN IN BIOLOGICAL TISSUE” (priority 2007, published 2010).

The data set has as its system aquaporin. Description: Immersion of round radish slices in red food coloring water (Reference Example 1). As for the experimental part:
Using radish that was cut into round slices with thicknesses of 6-10 cm, the bottom faces of the round slices were immersed in red food coloring water for 1-16 hours, As the red food coloring, Red No. 102 (chemical name: 7-hydroxy-8-(4-sulfonaphthylazo)-1,3-naphthylenedisulfonic acid=trisodium salt=1½ hydrate) was used.

Consider `O.O.O.O=S(=O)([O-])c1cc(S(=O)(=O)[O-])c2c(N=Nc3ccc(S(=O)(=O)[O-])c4ccccc34)c(O)ccc2c1.O=S(=O)([O-])c1cc(S(=O)(=O)[O-])c2c(N=Nc3ccc(S(=O)(=O)[O-])c4ccccc34)c(O)ccc2c1.[Na+].[Na+].[Na+].[Na+].[Na+].[Na+]` [Red No. 102, 7-hydroxy-8-(4-sulfonaphthylazo)-1,3-naphthylenedisulfonic acid=trisodium salt=1½ hydrate], for which the “permeation of red food coloring into radish tissue” value is, setting by setting: (bottom face of round slices immersed, one hour elapsed) “had soaked into the connective tissue at the periphery of the round slices from the bottom face”; (round slices immersed for 16 hours) “sites permeated by red food coloring water were not found anywhere other than the connective tissue”.
